Results published in patent publication US20220218614A1, “IONIZABLE CATIONIC LIPIDS AND LIPID NANOPARTICLES, AND METHODS OF SYNTHESIS AND USE THEREOF” (Tidal Therapeutics, Inc., priority 2020, published 2022).
“Also recorded” adds a separate entry of the source.

Experiments:
[1] = test system: human CD3 T cells; test: Transfection of human CD3 T cells (CD8 and CD4 subsets) with Fab/Nb-targeted LNPs; assay type: cell-based; settings: targeted Lipid 8 LNP (Lipid 5 in Example 43), GFP mRNA approximately 2.5 μg/mL, approximately 24 hr
Procedure: (§1) LNPs were prepared using the mixing process described in Example 6, the buffer exchange process described below in Example 21. Using methods similar to Example 12, hSP34 and TRX2 Fab-lipid conjugates and a non-T cell specific anti-HER2 lipid-conjugate (Nellis D F, Ekstrom D L, Kirpotin D B, Zhu J, Andersson R, Broadt T L, Ouellette T F, Perkins S C, Roach J M, Drummond D C, Hong K, Marks J D, Park J W and Giardina S L (2005) Preclinical manufacture of an anti-HER2 scFv-PEG-DSPE, liposome-inserting conjugate. 1. Gram-scale production and purification. Biotechnol Prog 21:205-220) were post-inserted at various densities (SP34 0.25-17 g/mol; TRX2 0.25-9 g/mol; SP34+TRX2 0.25-9 g/mol each conjugate; anti-HER2 17 g/mol) into LNPs containing Lipid 8 and anti-CD20 targeting CART mRNA. Transfections were performed with human CD3 T cells at approximately 2.5 μg/mL mRNA for approximately 24 hr. For FACS analysis T cells were stained with M1 antibody (Sigma, F3040) that bind a N-terminus FLAG-tag variant sequence on the TTR-023 CAR (sequence provided below) in addition to staining for CD69 (Biolegend, 310930) and CD4 (Biolegend, 344648) to differentiate CD8 from CD4 cells.
LNPs were prepared using the mixing process described in Example 6, the buffer exchange process described in Example 21. Using methods similar to Example 12, hSP34, TRX2, and Ibalizumab Fab-lipid conjugates and a non-T cell specific anti-HER2 lipid-conjugate were post-inserted at various densities (specified in FIGS. 20A and 20B into LNPs containing Lipid 8 and Cy5/GFP mRNA. Transfections were performed with human CD3 T cells at approximately 2.5 μg/mL mRNA for approximately 24 hr and stained for CD69 (Biolegend, 310930) and CD4 (Biolegend, 344648) to differentiate CD8 from CD4 cells by FACS analysis.
LNPs were prepared using the mixing process described in Example 6, the buffer exchange process described in Example 21. […] Levels of transfection of CD3 T cells was measured by flow cytometry. […]

[2] = test system: CD69; test: CD69 upregulation on T cells after LNP transfection (FACS staining); assay type: cell-based, human; settings: approximately 24 hr after targeted Lipid 8 LNPs at approximately 2.5 μg/mL mRNA
Procedure: as §1
LNPs were prepared using the mixing process described in Example 6, the buffer exchange process described in Example 21. […]

Substance: Ibalizumab: anti-CD4 Fab from Ibalizumab sequence, SEQ ID NO: 10 and 11
- % GFP transfection and GFP expression (MFI) of CD8 and CD4 T cells, in words [1]: higher % transfection (FIG. 71A) and GFP expression levels; also recorded: highly specific LNP transfection and protein translation of CD4+ T cells versus CD8+ T cells; also recorded: increase in transfection efficiency going from 2K PEG to 3.4K PEG; also recorded: high binding and transfection of CD4 T cells while displaying minimal off-target binding and transfection of CD8 T cells
- CD69 upregulation on CD8 and CD4 T cells, in words [2]: much lower levels of CD69
